Results from ChEMBL document CHEMBL4342489, “Structure-Activity Relationship Evaluation of Wasp Toxin β-PMTX Leads to Analogs with Superior Activity for Human Neuronal Sodium Channels” (ACS Med Chem Lett, 2020).
Positions of bridges follow the written chain, without caps; N, C: chain ends. Non-standard residues stand in square brackets, D forms with d. Residues, ends and D or L forms follow the SMILES beside them. Phe(4-Cl) = N[C@@H](Cc1ccc(Cl)cc1)C(=O)O; 2Nal = N[C@@H](Cc1ccc2ccccc2c1)C(=O)O

How the values were obtained:
Type in all cases: cell-based
[1] = target: Sodium channel protein type 1 subunit alpha (Homo sapiens) (UniProt P35498); assay: Activation of human Nav1.1 expressed in HEK293 cells assessed as ratio of compound activation AUC to baseline activation AUC at 0.37 uM at -120 mV holding potential by Qpatch assay
[2] = target: Sodium channel protein type 1 subunit alpha (Homo sapiens) (UniProt P35498); assay: Activation of human Nav1.1 expressed in HEK293 cells assessed as ratio of compound activation AUC to baseline activation AUC at 1.11 uM at -120 mV holding potential by Qpatch assay
[3] = target: Sodium channel protein type 1 subunit alpha (Homo sapiens) (UniProt P35498); assay: Activation of human Nav1.1 expressed in HEK293 cells assessed as ratio of compound activation AUC to baseline activation AUC at 0.12 uM at -120 mV holding potential by Qpatch assay
[4] = target: Sodium channel protein type 1 subunit alpha (Homo sapiens) (UniProt P35498); assay: Activation of human Nav1.1 expressed in HEK293 cells assessed as ratio of compound activation AUC to baseline activation AUC at 3.3 uM at -120 mV holding potential by Qpatch assay
[5] = target: Sodium channel protein type 2 subunit alpha (Homo sapiens) (UniProt Q99250); assay: Activation of human Nav1.2 expressed in CHOK1 cells assessed as ratio of compound activation AUC to baseline activation AUC at 3.3 uM at -120 mV holding potential by Qpatch assay
Chain of Sodium channel protein type 2 subunit alpha (Homo sapiens) (Q99250 whole entry, looked up): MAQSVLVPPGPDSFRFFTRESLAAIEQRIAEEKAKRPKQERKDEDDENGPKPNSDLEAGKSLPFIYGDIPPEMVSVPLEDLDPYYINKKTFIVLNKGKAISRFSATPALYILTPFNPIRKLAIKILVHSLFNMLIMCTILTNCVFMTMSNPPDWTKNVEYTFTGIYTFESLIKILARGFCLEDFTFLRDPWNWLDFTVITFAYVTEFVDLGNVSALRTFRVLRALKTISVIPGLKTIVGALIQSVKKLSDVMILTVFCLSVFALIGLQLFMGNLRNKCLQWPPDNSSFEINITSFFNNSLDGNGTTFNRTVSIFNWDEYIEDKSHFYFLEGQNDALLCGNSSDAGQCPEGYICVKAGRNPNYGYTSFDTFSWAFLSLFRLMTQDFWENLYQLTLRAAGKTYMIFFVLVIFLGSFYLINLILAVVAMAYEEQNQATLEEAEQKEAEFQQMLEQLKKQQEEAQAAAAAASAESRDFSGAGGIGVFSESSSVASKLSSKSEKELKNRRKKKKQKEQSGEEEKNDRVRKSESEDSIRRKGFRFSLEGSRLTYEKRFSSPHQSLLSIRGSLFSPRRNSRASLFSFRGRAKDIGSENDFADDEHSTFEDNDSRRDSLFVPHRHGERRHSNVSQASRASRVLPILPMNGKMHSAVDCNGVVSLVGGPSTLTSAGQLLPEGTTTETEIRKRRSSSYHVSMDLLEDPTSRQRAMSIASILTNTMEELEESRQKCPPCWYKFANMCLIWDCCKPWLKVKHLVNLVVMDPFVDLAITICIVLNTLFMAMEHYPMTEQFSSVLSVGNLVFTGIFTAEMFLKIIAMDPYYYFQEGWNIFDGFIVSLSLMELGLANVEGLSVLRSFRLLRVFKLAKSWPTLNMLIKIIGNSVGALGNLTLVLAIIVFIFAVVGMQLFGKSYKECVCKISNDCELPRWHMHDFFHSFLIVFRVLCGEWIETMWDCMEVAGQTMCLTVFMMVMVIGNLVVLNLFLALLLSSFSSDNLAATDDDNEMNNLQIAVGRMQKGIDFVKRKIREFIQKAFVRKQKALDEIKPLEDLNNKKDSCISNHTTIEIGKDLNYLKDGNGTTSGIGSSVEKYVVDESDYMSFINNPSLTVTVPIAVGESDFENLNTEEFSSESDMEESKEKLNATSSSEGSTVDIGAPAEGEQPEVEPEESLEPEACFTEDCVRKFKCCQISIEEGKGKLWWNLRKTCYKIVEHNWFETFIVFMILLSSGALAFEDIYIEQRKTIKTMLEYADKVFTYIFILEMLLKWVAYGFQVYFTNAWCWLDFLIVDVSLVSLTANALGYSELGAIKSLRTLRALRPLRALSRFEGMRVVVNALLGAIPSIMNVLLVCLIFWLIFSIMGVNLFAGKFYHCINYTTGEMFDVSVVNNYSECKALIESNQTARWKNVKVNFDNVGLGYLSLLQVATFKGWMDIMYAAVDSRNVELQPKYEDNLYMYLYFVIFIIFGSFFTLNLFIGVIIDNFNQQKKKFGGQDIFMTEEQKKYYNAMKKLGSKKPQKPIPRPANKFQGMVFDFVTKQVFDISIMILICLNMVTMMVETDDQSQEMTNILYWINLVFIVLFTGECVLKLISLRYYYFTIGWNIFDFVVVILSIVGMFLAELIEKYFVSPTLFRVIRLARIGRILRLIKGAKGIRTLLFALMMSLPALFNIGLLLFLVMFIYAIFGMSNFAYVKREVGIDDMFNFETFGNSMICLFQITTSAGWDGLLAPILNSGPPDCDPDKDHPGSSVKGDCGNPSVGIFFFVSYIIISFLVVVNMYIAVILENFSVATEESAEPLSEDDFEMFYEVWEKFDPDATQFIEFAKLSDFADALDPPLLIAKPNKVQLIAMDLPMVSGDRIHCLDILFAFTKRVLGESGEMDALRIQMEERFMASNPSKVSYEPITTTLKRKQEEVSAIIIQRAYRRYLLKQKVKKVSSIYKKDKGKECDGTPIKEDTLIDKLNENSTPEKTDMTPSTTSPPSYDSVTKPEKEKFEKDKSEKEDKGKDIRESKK

[6] = target: Sodium channel protein type 5 subunit alpha (Homo sapiens, UniProt Q14524); assay: Activation of human Nav1.5 expressed in HEK293 cells assessed as ratio of compound activation AUC to baseline activation AUC at 3.3 uM at -120 mV holding potential by Qpatch assay; conditions: hek293, 3.3 µM
[7] = target: Sodium channel protein type 3 subunit alpha (Homo sapiens) (UniProt Q9NY46); assay: Activation of human Nav1.3 expressed in CHOK1 cells assessed as ratio of compound activation AUC to baseline activation AUC at 3.3 uM at -120 mV holding potential by Qpatch assay
[8] = target: Sodium channel protein type 9 subunit alpha (Homo sapiens) (UniProt Q15858); assay: Activation of human Nav1.7 expressed in HEK293 cells assessed as ratio of compound activation AUC to baseline activation AUC at 3.3 uM at -120 mV holding potential by Qpatch assay
[9] = target: Sodium channel protein type 8 subunit alpha (Homo sapiens) (UniProt Q9UQD0); assay: Activation of human Nav1.6 expressed in HEK293 cells assessed as ratio of compound activation AUC to baseline activation AUC at 3.3 uM at -120 mV holding potential by Qpatch assay
Chain of Sodium channel protein type 8 subunit alpha (Homo sapiens) (Q9UQD0 whole entry, looked up): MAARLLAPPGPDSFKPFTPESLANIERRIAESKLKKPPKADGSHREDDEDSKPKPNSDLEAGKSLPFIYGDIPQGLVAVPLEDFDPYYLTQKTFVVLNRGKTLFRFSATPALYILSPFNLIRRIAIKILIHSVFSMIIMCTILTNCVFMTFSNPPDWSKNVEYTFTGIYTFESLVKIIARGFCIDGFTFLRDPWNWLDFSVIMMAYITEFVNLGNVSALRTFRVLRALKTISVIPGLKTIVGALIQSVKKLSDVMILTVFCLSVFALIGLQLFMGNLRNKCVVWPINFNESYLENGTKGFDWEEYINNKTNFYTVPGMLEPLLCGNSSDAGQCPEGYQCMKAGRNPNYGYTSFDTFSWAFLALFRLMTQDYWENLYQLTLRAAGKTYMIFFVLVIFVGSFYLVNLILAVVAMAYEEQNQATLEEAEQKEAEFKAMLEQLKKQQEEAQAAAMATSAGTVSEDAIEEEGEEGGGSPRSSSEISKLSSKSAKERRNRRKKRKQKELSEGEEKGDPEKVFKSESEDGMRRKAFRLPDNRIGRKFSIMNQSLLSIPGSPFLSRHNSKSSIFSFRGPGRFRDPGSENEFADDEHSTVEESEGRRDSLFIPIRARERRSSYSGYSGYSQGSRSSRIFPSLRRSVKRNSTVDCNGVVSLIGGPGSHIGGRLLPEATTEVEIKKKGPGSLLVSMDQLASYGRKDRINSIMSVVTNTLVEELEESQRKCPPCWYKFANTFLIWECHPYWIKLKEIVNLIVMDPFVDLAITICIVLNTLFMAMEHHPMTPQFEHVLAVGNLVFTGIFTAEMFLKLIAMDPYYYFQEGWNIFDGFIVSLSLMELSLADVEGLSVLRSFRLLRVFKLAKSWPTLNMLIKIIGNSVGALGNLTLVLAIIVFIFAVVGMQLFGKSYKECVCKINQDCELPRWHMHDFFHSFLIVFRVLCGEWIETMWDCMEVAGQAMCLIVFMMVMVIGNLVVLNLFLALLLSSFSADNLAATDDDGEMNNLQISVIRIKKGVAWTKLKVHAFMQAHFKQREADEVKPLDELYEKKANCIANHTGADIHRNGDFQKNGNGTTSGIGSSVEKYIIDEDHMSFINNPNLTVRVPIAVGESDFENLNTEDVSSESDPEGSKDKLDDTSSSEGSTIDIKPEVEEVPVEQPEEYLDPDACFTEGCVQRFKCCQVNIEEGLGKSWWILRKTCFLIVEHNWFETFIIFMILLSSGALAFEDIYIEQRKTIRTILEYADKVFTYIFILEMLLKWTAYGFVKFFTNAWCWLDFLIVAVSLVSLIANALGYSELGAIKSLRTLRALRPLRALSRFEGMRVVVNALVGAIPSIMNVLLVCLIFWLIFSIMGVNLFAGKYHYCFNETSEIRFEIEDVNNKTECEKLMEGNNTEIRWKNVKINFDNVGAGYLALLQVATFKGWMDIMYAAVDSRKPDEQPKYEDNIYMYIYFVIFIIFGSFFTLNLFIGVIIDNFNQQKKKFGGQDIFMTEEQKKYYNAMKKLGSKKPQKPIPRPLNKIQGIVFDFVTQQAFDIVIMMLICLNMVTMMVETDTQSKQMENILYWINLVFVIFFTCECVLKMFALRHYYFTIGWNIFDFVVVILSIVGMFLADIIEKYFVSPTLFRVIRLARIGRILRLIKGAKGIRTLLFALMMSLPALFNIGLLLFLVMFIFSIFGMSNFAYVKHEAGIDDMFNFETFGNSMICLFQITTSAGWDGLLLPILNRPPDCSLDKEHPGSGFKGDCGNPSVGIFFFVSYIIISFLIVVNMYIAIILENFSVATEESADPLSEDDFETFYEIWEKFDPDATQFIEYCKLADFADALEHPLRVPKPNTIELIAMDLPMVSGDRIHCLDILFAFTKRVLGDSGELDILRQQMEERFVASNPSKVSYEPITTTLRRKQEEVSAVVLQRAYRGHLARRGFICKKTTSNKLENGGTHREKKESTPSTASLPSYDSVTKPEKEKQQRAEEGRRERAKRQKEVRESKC

[10] = target: Sodium channel protein type 4 subunit alpha (Homo sapiens) (UniProt P35499); assay: Activation of human Nav1.4 expressed in HEK293 cells assessed as ratio of compound activation AUC to baseline activation AUC at 3.3 uM at -120 mV holding potential by Qpatch assay

Structure (SMILES) | Ratio AUC [1] | Ratio AUC [2] | Ratio AUC [3] | Ratio AUC [4] | Ratio AUC [5] | Ratio AUC [6] | Ratio AUC [7] | Ratio AUC [8] | Ratio AUC [9] | Ratio AUC [10]
CC[C@H](C)[C@H](NC(=O)[C@@H](N)CCCNC(=N)N)C(=O)N[C@@H](CCCCN)C(=O)N[C@H](C(=O)N1CCC[C@@H]1C(=O)N[C@@H](CC(C)C)C(=O)N[C@@H](Cc1ccccc1)C(=O)N[C@@H](CC(=O)O)C(=O)N[C@@H](CCC(N)=O)C(=O)N[C@@H](CC(C)C)C(=O)N[C@@H](CO)C(=O)N[C@@H](CCCNC(=N)N)C(=O)N[C@@H](CC(C)C)C(N)=O)[C@@H](C)CC | 1.1 | 1.1 | 1 | 1.1 |  |  |  |  |  | 
CC[C@H](C)[C@H](NC(=O)[C@H](CCCNC(=N)N)NC(=O)[C@@H](NC(=O)[C@@H](N)CCCNC(=N)N)[C@@H](C)CC)C(=O)NCC(=O)N[C@@H](CC(C)C)C(=O)N[C@@H](Cc1ccccc1)C(=O)N[C@@H](CC(=O)O)C(=O)N[C@@H](CCC(N)=O)C(=O)N[C@@H](CC(C)C)C(=O)N[C@@H](Cc1ccc(Cl)cc1)C(=O)N[C@@H](CCCNC(=N)N)C(=O)N[C@@H](CC(C)C)C(N)=O (H-RIRIGLFDQL[Phe(4-Cl)]RL-NH2) | 1.2 | 1.8 | 1.1 | 3.5 |  |  |  |  |  | 
CC[C@H](C)[C@H](NC(=O)[C@H](CCCNC(=N)N)NC(=O)[C@@H](NC(=O)[C@@H](N)CCCNC(=N)N)[C@@H](C)CC)C(=O)NCC(=O)N[C@@H](CC(C)C)C(=O)N[C@@H](Cc1ccccc1)C(=O)N[C@@H](CC(=O)O)C(=O)N[C@@H](CCC(N)=O)C(=O)N[C@@H](CC(C)C)C(=O)N[C@@H](CC(C)C)C(=O)N[C@@H](CCCNC(=N)N)C(=O)N[C@@H](CC(C)C)C(N)=O (H-RIRIGLFDQLLRL-NH2) | 1.6 | 2.9 | 1.1 | 5.8 |  |  |  |  |  | 
CC[C@H](C)[C@H](NC(=O)[C@H](CCCNC(=N)N)NC(=O)[C@@H](NC(=O)[C@@H](N)CCCNC(=N)N)[C@@H](C)CC)C(=O)NCC(=O)N[C@@H](CC(C)C)C(=O)N[C@@H](Cc1ccccc1)C(=O)N[C@@H](CC(=O)O)C(=O)N[C@@H](CCC(N)=O)C(=O)N[C@@H](CC(C)C)C(=O)N[C@@H](Cc1ccc(O)cc1)C(=O)N[C@@H](CCCNC(=N)N)C(=O)N[C@@H](CC(C)C)C(N)=O (H-RIRIGLFDQLYRL-NH2) | 1.1 | 1.5 | 1 | 2 |  |  |  |  |  | 
CC[C@H](C)[C@H](NC(=O)[C@H](CCCNC(=N)N)NC(=O)[C@@H](NC(=O)[C@@H](N)CCCNC(=N)N)[C@@H](C)CC)C(=O)NCC(=O)N[C@@H](CC(C)C)C(=O)N[C@@H](Cc1ccccc1)C(=O)N[C@@H](CC(=O)O)C(=O)N[C@@H](CCC(N)=O)C(=O)N[C@@H](CC(C)C)C(=O)N[C@@H](CO)C(=O)N[C@@H](CCCNC(=N)N)C(=O)N[C@@H](CC(C)C)C(N)=O (H-RIRIGLFDQLSRL-NH2) | 1.1 | 1.3 | 1 | 2 |  |  |  |  |  | 
CC[C@H](C)[C@@H]1NC(=O)[C@@H](NC(=O)[C@@H](NC(=O)[C@@H](N)CCCNC(=N)N)[C@@H](C)CC)CSSC[C@@H](C(=O)N[C@@H](CCC(N)=O)C(=O)N[C@@H](CC(C)C)C(=O)N[C@@H](CO)C(=O)N[C@@H](CCCNC(=N)N)C(=O)N[C@@H](CC(C)C)C(N)=O)NC(=O)[C@H](Cc2ccccc2)NC(=O)[C@H](CC(C)C)NC(=O)CNC1=O (H-RICIGLFCQLSRL-NH2; disulfide 3-8) | 0.9 | 0.9 | 1.1 | 1 |  |  |  |  |  | 
CC[C@H](C)[C@@H]1NC(=O)[C@H](CCCCN)NC(=O)[C@H]([C@@H](C)CC)NC(=O)[C@@H](N)CSSC[C@@H](C(=O)N[C@@H](CCC(N)=O)C(=O)N[C@@H](CC(C)C)C(=O)N[C@@H](CO)C(=O)N[C@@H](CCCNC(=N)N)C(=O)N[C@@H](CC(C)C)C(N)=O)NC(=O)[C@H](Cc2ccccc2)NC(=O)[C@H](CC(C)C)NC(=O)CNC1=O (H-CIKIGLFCQLSRL-NH2; disulfide 1-8) | 1.1 | 1 | 1 | 1.1 |  |  |  |  |  | 
CC[C@H](C)[C@H](NC(=O)[C@H](CCCNC(=N)N)NC(=O)[C@@H](NC(=O)[C@@H](N)CCCNC(=N)N)[C@@H](C)CC)C(=O)NCC(=O)N[C@@H](CC(C)C)C(=O)N[C@@H](Cc1ccccc1)C(=O)N[C@@H](CC(=O)O)C(=O)N[C@@H](CCC(N)=O)C(=O)N[C@@H](CC(C)C)C(=O)N[C@@H](Cc1ccccc1)C(=O)N[C@@H](CCCNC(=N)N)C(=O)N[C@@H](CC(C)C)C(N)=O (H-RIRIGLFDQLFRL-NH2) | 1.1 | 1.6 | 1 | 2.7 |  |  |  |  |  | 
CC[C@H](C)[C@H](NC(=O)[C@H](CCCCN)NC(=O)[C@@H](NC(=O)[C@@H](N)CCCNC(=N)N)[C@@H](C)CC)C(=O)NCC(=O)N[C@@H](CC(C)C)C(=O)N[C@@H](Cc1c[nH]c2ccccc12)C(=O)N[C@@H](CC(=O)O)C(=O)N[C@@H](CCC(N)=O)C(=O)N[C@@H](CC(C)C)C(=O)N[C@@H](CO)C(=O)N[C@@H](CCCNC(=N)N)C(=O)N[C@@H](CC(C)C)C(N)=O (H-RIKIGLWDQLSRL-NH2) | 0.9 | 0.9 | 1 | 1 |  |  |  |  |  | 
CC[C@H](C)[C@H](NC(=O)[C@H](CCCCN)NC(=O)[C@@H](NC(=O)[C@@H](N)CCCNC(=N)N)[C@@H](C)CC)C(=O)NCC(=O)N[C@@H](CC(C)C)C(=O)N[C@@H](Cc1ccc2ccccc2c1)C(=O)N[C@@H](CC(=O)O)C(=O)N[C@@H](CCC(N)=O)C(=O)N[C@@H](CC(C)C)C(=O)N[C@@H](CO)C(=O)N[C@@H](CCCNC(=N)N)C(=O)N[C@@H](CC(C)C)C(N)=O (H-RIKIGL[2Nal]DQLSRL-NH2) | 2.1 | 5 | 1.3 | 10.7 | 2.4 | 4 | 1.9 | 4 | 6.7 | 1.6
CC[C@H](C)[C@H](NC(=O)[C@H](CCCCN)NC(=O)[C@@H](NC(=O)[C@@H](N)CC(=O)O)[C@@H](C)CC)C(=O)NCC(=O)N[C@@H](CC(C)C)C(=O)N[C@@H](Cc1ccccc1)C(=O)N[C@@H](CCCNC(=N)N)C(=O)N[C@@H](CCC(N)=O)C(=O)N[C@@H](CC(C)C)C(=O)N[C@@H](CO)C(=O)N[C@@H](CCCNC(=N)N)C(=O)N[C@@H](CC(C)C)C(N)=O (H-DIKIGLFRQLSRL-NH2) | 1.1 | 1.1 | 1 | 1.1 |  |  |  |  |  | 
CC[C@H](C)[C@H](NC(=O)[C@H](CCCCN)NC(=O)[C@H](CC(C)C)NC(=O)[C@@H](N)CCCNC(=N)N)C(=O)NCC(=O)N[C@@H](CC(C)C)C(=O)N[C@@H](Cc1ccccc1)C(=O)N[C@@H](CC(=O)O)C(=O)N[C@@H](CCC(N)=O)C(=O)N[C@@H](CC(C)C)C(=O)N[C@@H](CO)C(=O)N[C@@H](CCCNC(=N)N)C(=O)N[C@@H](CC(C)C)C(N)=O (H-RLKIGLFDQLSRL-NH2) | 1 | 1 | 1 | 1 |  |  |  |  |  | 
CC[C@H](C)[C@H](NC(=O)[C@H](CC(=O)O)NC(=O)[C@@H](NC(=O)[C@@H](N)CCCNC(=N)N)[C@@H](C)CC)C(=O)NCC(=O)N[C@@H](CC(C)C)C(=O)N[C@@H](Cc1ccccc1)C(=O)N[C@@H](CCCCN)C(=O)N[C@@H](CCC(N)=O)C(=O)N[C@@H](CC(C)C)C(=O)N[C@@H](CO)C(=O)N[C@@H](CCCNC(=N)N)C(=O)N[C@@H](CC(C)C)C(N)=O (H-RIDIGLFKQLSRL-NH2) | 1.1 | 1.1 | 1.1 | 1.1 |  |  |  |  |  | 
CC[C@H](C)[C@H](NC(=O)[C@H](CCCCN)NC(=O)[C@@H](NC(=O)[C@@H](N)CCCNC(=N)N)[C@@H](C)CC)C(=O)N[C@H](C)C(=O)N[C@@H](CC(C)C)C(=O)N[C@@H](Cc1ccccc1)C(=O)N[C@@H](CC(=O)O)C(=O)N[C@@H](CCC(N)=O)C(=O)N[C@@H](CC(C)C)C(=O)N[C@@H](CO)C(=O)N[C@@H](CCCNC(=N)N)C(=O)N[C@@H](CC(C)C)C(N)=O | 0.1 | 1 | 0.1 | 1.1 |  |  |  |  |  | 
CC[C@H](C)[C@H](NC(=O)[C@H](CCCNC(=N)N)NC(=O)[C@@H](NC(=O)[C@@H](N)CCCNC(=N)N)[C@@H](C)CC)C(=O)NCC(=O)N[C@@H](CC(C)C)C(=O)N[C@@H](Cc1ccccc1)C(=O)N[C@@H](CC(=O)O)C(=O)N[C@@H](CCC(N)=O)C(=O)N[C@@H](CC(C)C)C(=O)N[C@@H](Cc1c[nH]c2ccccc12)C(=O)N[C@@H](CCCNC(=N)N)C(=O)N[C@@H](CC(C)C)C(N)=O (H-RIRIGLFDQLWRL-NH2) | 1.6 | 2.8 | 1.2 | 4.3 |  |  |  |  |  | 
